The target of assay [1] is Histone deacetylase 9 (Homo sapiens, UniProt Q9UKV0). The assay can be described thus: ChEBML_1684755.
Assay [2] deals with Histone deacetylase 1 (Homo sapiens, UniProt Q13547). Nature of the assay: Inhibition of HDAC1 (unknown origin).
Assay [3] deals with Histone deacetylase 8 (Homo sapiens) (UniProt Q9BY41). The assay can be described thus: Inhibition of recombinant human HDAC8 using Boc-Lys (Ac)-AMC substrate by fluorescence assay.
Histone deacetylase 8 (Homo sapiens), sequence (Q9BY41 whole entry, looked up): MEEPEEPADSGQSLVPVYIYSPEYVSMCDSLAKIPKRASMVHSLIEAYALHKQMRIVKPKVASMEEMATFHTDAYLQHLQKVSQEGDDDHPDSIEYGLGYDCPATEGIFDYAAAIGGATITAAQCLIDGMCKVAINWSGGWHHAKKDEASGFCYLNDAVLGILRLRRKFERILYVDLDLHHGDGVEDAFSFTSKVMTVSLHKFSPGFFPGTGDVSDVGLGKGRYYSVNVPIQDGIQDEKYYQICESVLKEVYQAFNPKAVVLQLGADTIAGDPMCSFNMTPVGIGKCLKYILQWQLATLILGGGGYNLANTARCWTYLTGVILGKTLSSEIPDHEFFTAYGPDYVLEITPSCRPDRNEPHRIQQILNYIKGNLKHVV

Histone deacetylase 9, sequence (Q9UKV0 whole entry): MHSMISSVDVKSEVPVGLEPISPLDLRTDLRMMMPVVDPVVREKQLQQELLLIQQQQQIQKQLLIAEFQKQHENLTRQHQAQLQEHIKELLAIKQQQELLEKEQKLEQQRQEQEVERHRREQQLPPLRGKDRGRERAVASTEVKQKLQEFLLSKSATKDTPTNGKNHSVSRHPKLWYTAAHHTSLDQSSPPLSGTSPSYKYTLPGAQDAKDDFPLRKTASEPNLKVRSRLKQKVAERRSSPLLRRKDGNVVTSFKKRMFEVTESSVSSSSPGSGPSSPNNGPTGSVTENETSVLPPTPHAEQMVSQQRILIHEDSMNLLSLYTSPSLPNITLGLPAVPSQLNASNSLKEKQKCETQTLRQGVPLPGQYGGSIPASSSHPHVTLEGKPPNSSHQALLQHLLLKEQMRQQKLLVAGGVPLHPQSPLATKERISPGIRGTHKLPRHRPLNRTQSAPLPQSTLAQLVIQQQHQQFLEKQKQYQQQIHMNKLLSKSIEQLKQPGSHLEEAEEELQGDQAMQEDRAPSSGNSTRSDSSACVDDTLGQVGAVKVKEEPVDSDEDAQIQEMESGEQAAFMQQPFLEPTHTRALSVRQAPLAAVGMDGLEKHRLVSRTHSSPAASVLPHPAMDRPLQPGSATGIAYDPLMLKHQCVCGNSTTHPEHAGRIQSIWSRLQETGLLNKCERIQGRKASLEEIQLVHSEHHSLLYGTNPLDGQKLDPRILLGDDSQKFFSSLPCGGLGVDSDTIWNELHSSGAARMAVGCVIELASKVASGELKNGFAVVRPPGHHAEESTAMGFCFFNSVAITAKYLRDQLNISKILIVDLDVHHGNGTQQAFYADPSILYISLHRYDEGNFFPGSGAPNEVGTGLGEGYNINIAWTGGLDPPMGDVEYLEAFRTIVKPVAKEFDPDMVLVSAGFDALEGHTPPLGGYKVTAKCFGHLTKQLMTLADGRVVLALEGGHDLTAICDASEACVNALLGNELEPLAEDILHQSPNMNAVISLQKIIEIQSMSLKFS
Histone deacetylase 1, sequence (Q13547 whole entry): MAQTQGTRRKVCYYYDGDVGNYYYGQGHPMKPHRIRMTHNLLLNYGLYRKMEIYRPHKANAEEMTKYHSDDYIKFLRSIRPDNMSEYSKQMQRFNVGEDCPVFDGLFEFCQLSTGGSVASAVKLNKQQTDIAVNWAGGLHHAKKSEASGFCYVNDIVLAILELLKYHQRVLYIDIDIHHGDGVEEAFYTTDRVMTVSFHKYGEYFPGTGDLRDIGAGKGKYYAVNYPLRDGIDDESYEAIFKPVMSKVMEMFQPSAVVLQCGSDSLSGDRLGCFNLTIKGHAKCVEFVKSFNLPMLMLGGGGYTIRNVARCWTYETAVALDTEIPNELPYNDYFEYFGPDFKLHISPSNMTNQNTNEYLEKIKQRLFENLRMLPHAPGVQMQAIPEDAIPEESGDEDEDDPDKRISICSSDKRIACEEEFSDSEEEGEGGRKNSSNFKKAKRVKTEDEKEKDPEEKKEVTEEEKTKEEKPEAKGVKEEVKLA

By IC50 is commonly meant the concentration at which inhibition is half-maximal. Take `Cc1nc2ccccc2n1Cc1ccc(C(=O)NO)cc1F`: the figures for the IC50 in assay [1] and in assay [2] were 70 nM and 9000 nM, respectively. Take `O=C(NO)c1ccc(Cn2cc(-c3ccc(CN4CCCC4)cc3)nn2)cc1`: in assay [3], the IC50 was 280 nM.

Source of the values: BindingDB's records for doi:10.1016/j.ejmech.2017.04.013 (Ghent University, 2017).
